One block for each molecule: values may come before it.
Experiments:
3,6-DKCMO = molecular target: T1, 3,6-DKCMO (Pseudomonas putida, UniProt D7UER1); experiment: […] min biotransformation with FMNH2 supplied by purified flavin reductases, GC; type: biochemical; conditions: FMNH2 cosubstrate generated in situ from FMN and NADH, 1 mM ketone, pH 7.6, 25 °C
T1 construct: gene camE36; natively purified biooxygenating subunit, untagged
T1 sequence (D7UER1 1-378): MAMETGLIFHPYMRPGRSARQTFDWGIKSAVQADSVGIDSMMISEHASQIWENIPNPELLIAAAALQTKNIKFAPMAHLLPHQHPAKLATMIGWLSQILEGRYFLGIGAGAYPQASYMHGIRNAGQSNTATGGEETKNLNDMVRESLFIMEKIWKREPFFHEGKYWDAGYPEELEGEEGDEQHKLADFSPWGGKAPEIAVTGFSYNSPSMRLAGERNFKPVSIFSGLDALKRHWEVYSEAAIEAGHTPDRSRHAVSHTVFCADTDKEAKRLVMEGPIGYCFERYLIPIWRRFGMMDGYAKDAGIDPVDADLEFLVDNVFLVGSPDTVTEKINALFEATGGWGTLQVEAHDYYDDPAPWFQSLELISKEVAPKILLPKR

LuxAB luciferase = molecular target: T2, LuxAB luciferase (Aliivibrio fischeri, UniProt P19907); experiment: as above; type: biochemical; conditions: FMNH2 cosubstrate generated in situ from FMN and NADH, 1 mM ketone, pH 7.6, 25 °C
T2 construct: gene luxA; natively purified LuxAB luciferase, untagged; with Alkanal monooxygenase beta chain
T2 sequence (P19907 1-354): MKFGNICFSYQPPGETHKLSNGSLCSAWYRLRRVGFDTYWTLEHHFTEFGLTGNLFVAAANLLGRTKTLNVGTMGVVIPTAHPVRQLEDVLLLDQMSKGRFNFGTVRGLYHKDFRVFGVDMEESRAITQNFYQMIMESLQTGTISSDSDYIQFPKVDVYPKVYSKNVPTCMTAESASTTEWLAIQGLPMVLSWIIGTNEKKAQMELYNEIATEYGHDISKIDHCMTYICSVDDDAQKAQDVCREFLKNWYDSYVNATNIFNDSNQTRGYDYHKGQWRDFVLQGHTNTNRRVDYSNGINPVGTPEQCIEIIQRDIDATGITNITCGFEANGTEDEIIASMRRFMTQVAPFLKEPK
T2 sequence (P19908 1-326 partner): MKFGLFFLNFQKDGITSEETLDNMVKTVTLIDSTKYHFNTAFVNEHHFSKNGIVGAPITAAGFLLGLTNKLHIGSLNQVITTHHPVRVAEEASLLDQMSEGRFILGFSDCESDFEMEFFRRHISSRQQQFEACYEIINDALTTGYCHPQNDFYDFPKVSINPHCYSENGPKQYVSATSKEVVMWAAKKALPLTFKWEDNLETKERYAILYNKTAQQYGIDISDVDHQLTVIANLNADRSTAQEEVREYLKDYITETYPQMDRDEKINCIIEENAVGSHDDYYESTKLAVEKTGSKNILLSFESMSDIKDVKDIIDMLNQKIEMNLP

Frp1 = experiment: initial rate of FMN reduction by NADH at […] nm, single-enzyme, Michaelis-Menten; type: biochemical, Pseudomonas putida; conditions: co-substrate NADH, anaerobic; single-enzyme assay (S); read-out: Apparent KmFMN
Frp2 = experiment: as above; type: biochemical, Pseudomonas putida; conditions: co-substrate NADH, anaerobic; single-enzyme assay (S); read-out: Apparent KmFMN
purified protein = substrate: Cc1cc2nc3c(=O)[nH]c(=O)nc-3n(C[C@H](O)[C@H](O)[C@H](O)COP(=O)(O)O)c2cc1C; experiment: purified protein; type: biochemical, Aliivibrio fischeri; conditions: co-substrate NADH, anaerobic; single-enzyme assay (S)

Molecule: Cc1cc2c(cc1C)N(C[C@H](O)[C@H](O)[C@H](O)COP(=O)(O)O)c1[nH]c(=O)[nH]c(=O)c1N2 [FMNH2]
- 120 min biotransformation with FMNH2 supplied by purified flavin reductases, GC (3,6-DKCMO): can biooxygenate the bicyclic ketone by sourcing the requisite FMNH2 cosubstrate
- 120 min biotransformation with FMNH2 supplied by purified flavin reductases, GC (LuxAB luciferase): can biooxygenate the bicyclic ketone by sourcing the requisite FMNH2 cosubstrate

- Km (Frp1): 2.5 µM
- Km (Frp2): 4.2 µM
Molecule: Cc1cc2nc3c(=O)[nH]c(=O)nc-3n(C[C@H](O)[C@H](O)[C@H](O)COP(=O)(O)O)c2cc1C [FMN]

B1: FRGVf (Aliivibrio fischeri) (protein)
chain: THPIIHDLENRYTSKKYDPSKKVSQEDLAVLLEALRLSASSINSQPWKFIVIESDAAKQRMHDSFANMHQFNQPHIKACSHVILFANKLSYTRDDYDVVLSKAVADKRITEEQKEAAFASFKFVELNCDENGEHKAWTKPQAYLALGNALHTLARLNIDSTTMEGIDPELLSEIFADELKGYECHVALAIGYHHPSEDYNASLPKSRKAFEDVITIL
- Km (purified protein): 4.3 µM

B2: FreVf (Aliivibrio fischeri) (protein)
chain: MPINCKVKSIEPLACNTFRILLHPEQPVAFKAGQYLTVVMGEKDKRPFSIASSPCRHEGEIELHIGAAEHNAYAGEVVESMKSALETGGDILIDAPHGEAWIREDSDRSMLLIAGGTGFSYVRSILDHCISQQIQKPIYLYWGGRDECQLYAKAELESIAQAHSHITFVPVVEKSEGWTGKTGNVLEAVKADFNSLADMDIYIAGRFEMAGAAREQFTTEKQAKKEQLFGDAFAFI
- Km (purified protein): 2.5 µM

— publication PMC9864536, “Inter-Species Redox Coupling by Flavin Reductases and FMN-Dependent Two-Component Monooxygenases Undertaking Nucleophilic Baeyer–Villiger Biooxygenations” (Microorganisms, 2022)
